Laboratory results: ChEMBL document CHEMBL3526108, “Contribution of carboxylesterase in hamster to the intestinal first-pass loss and low bioavailability of ethyl piperate, an effective lipid-lowering drug candidate” (Drug Metab Dispos, 2011)

How the values were obtained:
Hamster [1] = test: Absorption clearance in hamster at 400 uM administered as intestinal single-pass perfusion up to 1 hr by LC-MS/MS analysis in presence of BNPP; format: ADME, organism-based; conditions: cricetinae, in vivo, other
Hamster [2] = test: Degradation clearance in hamster at 400 uM administered as intestinal single-pass perfusion up to 1 hr by LC-MS/MS analysis in presence of BNPP; format: ADME, organism-based; conditions: cricetinae, in vivo, other
Hamster [3] = test: Absorption clearance in hamster at 400 uM administered as intestinal single-pass perfusion up to 1 hr by LC-MS/MS analysis; format: ADME, organism-based; conditions: cricetinae, in vivo, other
Hamster [4] = test: Degradation clearance in hamster at 400 uM administered as intestinal single-pass perfusion up to 1 hr by LC-MS/MS analysis; format: ADME, organism-based; conditions: cricetinae, in vivo, other
[5] = Apparent permeability coefficient of parent compound in hamster at 400 uM administered as intestinal single-pass perfusion up to 1 hr by LC-MS/MS analysis; format: ADME, organism-based; conditions: cricetinae
Hamster [6] = test: Drug metabolism in hamster assessed as production of piperinic acid at 400 uM administered as intestinal single-pass perfusion up to 1 hr by LC-MS/MS analysis; format: ADME, organism-based; conditions: cricetinae, in vivo, other
Hamster [7] = test: Drug metabolism in hamster assessed as appearance rate of parent compound in portal vein at 400 uM administered as intestinal single-pass perfusion up to 1 hr by LC-MS/MS analysis in presence of BNPP; format: ADME, organism-based; conditions: cricetinae, in vivo, other
Hamster [8] = test: Drug metabolism in hamster assessed as disappearance rate of parent compound in intestine at 400 uM administered as intestinal single-pass perfusion up to 1 hr by LC-MS/MS analysis in presence of BNPP; format: ADME, organism-based; conditions: cricetinae, in vivo, other
[9] = MRT (0 to t) in hamster at 30 mg/kg, po; format: ADME, organism-based; set-up: dose 30 mg/kg, route oral; conditions: cricetinae, in vivo
[10] = Tmax in hamster at 30 mg/kg, po; format: ADME, organism-based; set-up: dose 30 mg/kg, route oral; conditions: cricetinae, in vivo
[11] = Oral bioavailability in hamster at 30 mg/kg; format: ADME, organism-based; conditions: cricetinae, in vivo
[12] = AUC (0 to t) in hamster at 10 mg/kg, iv; format: ADME, organism-based; set-up: dose 10 mg/kg, route intravenous; conditions: cricetinae, plasma
[13] = AUC (0 to t) in hamster at 30 mg/kg, po; format: ADME, organism-based; set-up: dose 30 mg/kg, route oral; conditions: cricetinae, plasma
[14] = Cmax in hamster at 30 mg/kg, po; format: ADME, organism-based; set-up: dose 30 mg/kg, route oral; conditions: cricetinae, in vivo
[15] = MRT (0 to t) in hamster at 10 mg/kg, iv; format: ADME, organism-based; set-up: dose 10 mg/kg, route intravenous; conditions: cricetinae, in vivo
[16] = Elimination half life in hamster at 10 mg/kg, iv; format: ADME, organism-based; set-up: dose 10 mg/kg, route intravenous; conditions: cricetinae, in vivo, read-out: beta t1/2 (converted)
Hamster [17] = test: Volume of distribution in hamster at 10 mg/kg, iv; format: ADME, organism-based; set-up: dose 10 mg/kg, route intravenous; conditions: cricetinae, in vivo
[18] = Stability of the compound at simulated gastrointestinal pH conditions assessed as degradation; format: ADME
[19] = Stability of the compound in hamster intestinal washings assessed as compound remaining at 100 uM after 1 hr by LC-MS/MS analysis; format: ADME; conditions: cricetinae, read-out: Stability
[20] = Drug metabolism in hamster liver microsomes assessed as carboxylesterase-mediated compound hydrolysis at 50 uM after 30 mins; format: ADME; conditions: cricetinae, 0.5 h
[21] = Drug metabolism in hamster kidney microsomes assessed as carboxylesterase-mediated compound hydrolysis at 50 uM after 30 mins; format: ADME; conditions: cricetinae, 0.5 h
[22] = Drug metabolism in hamster intestinal microsomes assessed as carboxylesterase-mediated compound hydrolysis at 50 uM after 30 mins; format: ADME, Intestine; conditions: cricetinae, 0.5 h
[23] = Drug metabolism in hamster liver microsomes assessed as carboxylesterase-mediated compound hydrolysis at 50 uM after 30 mins in presence of BNPP; format: ADME; conditions: cricetinae, 0.5 h
[24] = Drug metabolism in hamster kidney microsomes assessed as carboxylesterase-mediated compound hydrolysis at 50 uM after 30 mins in presence of BNPP; format: ADME; conditions: cricetinae, 0.5 h
[25] = Drug metabolism in hamster liver microsomes assessed as carboxylesterase-mediated compound hydrolysis at 50 uM after 30 mins in presence of BNPP in presence of BNPP; format: ADME; conditions: cricetinae, 0.5 h
Hamster [26] = test: Drug metabolism in hamster assessed as appearance rate of parent compound in portal vein at 400 uM administered as intestinal single-pass perfusion up to 1 hr by LC-MS/MS analysis; format: ADME, organism-based; conditions: cricetinae, in vivo, other
Hamster [27] = test: Drug metabolism in hamster assessed as disappearance rate of parent compound in intestine at 400 uM administered as intestinal single-pass perfusion up to 1 hr by LC-MS/MS analysis; format: ADME, organism-based; conditions: cricetinae, in vivo, other
[28] = Apparent permeability coefficient of parent compound in hamster at 400 uM administered as intestinal single-pass perfusion up to 1 hr by LC-MS/MS analysis in presence of BNPP; format: ADME, organism-based; conditions: cricetinae, with BNPP
Hamster [29] = test: Drug metabolism in hamster intestinal S9 fraction assessed as production of piperinic acid at 400 uM administered as intestinal single-pass perfusion up to 1 hr by LC-MS/MS analysis in presence of BNPP; format: ADME, Intestine; conditions: cricetinae, s9, 1 h
[30] = Drug metabolism in hamster intestinal S9 fraction assessed as production of piperinic acid by Michaelis-Menten equation analysis; format: ADME, Intestine; conditions: cricetinae
[31] = Permeability from apical to basolateral side of human Caco2 cells at 5 uM after 1 hr in presence of BNPP; format: ADME, cell-based; conditions: caco-2, 1 h
[32] = Permeability from basolateral to apical side of human Caco2 cells at 5 uM after 1 hr in presence of BNPP; format: ADME, cell-based; conditions: caco-2, 1 h
[33] = Drug recovery in human Caco2 cells at 5 uM after 1 hr in presence of BNPP; format: ADME, cell-based; conditions: Caco-2, with BNPP, read-out: Drug recovery
[34] = Apparent permeability coefficient of compound in hamster treated with 400 uM of ethyl piperate administered as intestinal single-pass perfusion up to 1 hr by LC-MS/MS analysis in presence of BNPP; format: ADME, organism-based; conditions: cricetinae
Hamster [35] = test: Drug metabolism in hamster assessed as appearance rate of compound in intestine treated with 400 uM of ethyl piperate administered as intestinal single-pass perfusion up to 1 hr by LC-MS/MS analysis; format: ADME, organism-based; conditions: cricetinae, in vivo, other
[36] = Apparent permeability coefficient of compound in hamster treated with 400 uM of ethyl piperate administered as intestinal single-pass perfusion up to 1 hr by LC-MS/MS analysis; format: ADME, organism-based; conditions: cricetinae
Hamster [37] = test: Drug metabolism in hamster assessed as appearance rate of compound in portal vein treated with 400 uM of ethyl piperate administered as intestinal single-pass perfusion up to 1 hr by LC-MS/MS analysis in presence of BNPP; format: ADME, organism-based; conditions: cricetinae, in vivo, other
Hamster [38] = test: Drug metabolism in hamster assessed as appearance rate of compound in portal vein treated with 400 uM of ethyl piperate administered as intestinal single-pass perfusion up to 1 hr by LC-MS/MS analysis; format: ADME, organism-based; conditions: cricetinae, in vivo, other
Hamster [39] = test: Drug metabolism in hamster assessed as appearance rate of compound in intestine treated with 400 uM of ethyl piperate administered as intestinal single-pass perfusion up to 1 hr by LC-MS/MS analysis in presence of BNPP; format: ADME, organism-based; conditions: cricetinae, in vivo, other

## CCOC(=O)/C=C/C=C/c1ccc2c(c1)OCO2
Hamster [1]
  CL(app): 55 µL/min
Hamster [2]
  CL: 121.6 µL/min
Hamster [3]
  CL(app): 66.7 µL/min
Hamster [4]
  CL: 339.9 µL/min
[5]
  Papp at 1 h, 400 µM: 77 ×10⁻⁶ cm/s
Hamster [6]
  Drug metabolism: 0.196 nmol/min/mg
Hamster [7]
  Drug metabolism: 9.8 nmol/min
Hamster [8]
  Drug metabolism: 62.7 nmol/min
[9]
  MRT last: 24 min
[10]
  Tmax: 9 min
[11]
  bioavailability: 0.47%
[12]
  AUC(0-t): 2450 ng·h/mL
[13]
  AUC(0-t): 34.5 ng·h/mL
[14]
  Cmax: 70.4 ng/mL
[15]
  MRT last: 25.8 min
[16]
  half-life: 37.8 min
Hamster [17]
  Vz/F: 3.76 L/kg
[18]
  Stability: Stable
[19]
  remaining at 1 h, 100 µM: > 80%
[20]
  Drug metabolism: metabolite_detected
[21]
  Drug metabolism: metabolite_detected
[22]
  Drug metabolism: metabolite_detected
[23]
  Drug metabolism: metabolite_not_detected
[24]
  Drug metabolism: metabolite_not_detected
[25]
  Drug metabolism: metabolite_not_detected
Hamster [26]
  Drug metabolism: 10.8 nmol/min
Hamster [27]
  Drug metabolism: 76.5 nmol/min
[28]
  Papp at 1 h, 400 µM: 59.8 ×10⁻⁶ cm/s
Hamster [29]
  Drug metabolism: 0.06 nmol/min/mg
[30]
  Km: 7.56 µM
  Vmax: 0.16 nmol/min/mg
[31]
  permeability: impermeable
[32]
  permeability: impermeable
[33]
  recovery at 1 h, 5 µM: > 90%

## O=C(O)/C=C/C=C/c1ccc2c(c1)OCO2 [PIPERIC ACID]
[34]
  Papp at 1 h: 127 ×10⁻⁶ cm/s
Hamster [35]
  Drug metabolism: 2.3 nmol/min
[36]
  Papp at 1 h: 373 ×10⁻⁶ cm/s
Hamster [37]
  Drug metabolism: 21.7 nmol/min
Hamster [38]
  Drug metabolism: 52.1 nmol/min
Hamster [39]
  Drug metabolism: 2 nmol/min
